# The source made the active and inactive calls.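 Rule for the calls: active = growth-inhibition EC50 no more than tenfold above the top tested dose; inconclusive = flat fit between 30% and 70% inhibition, or unreliable fit; inactive = EC50 more than tenfold above the top tested dose.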
# System: E. coli NEB5alpha growth, BacTiter-Glo luminescence, 4 h
# Test: antibacterial activity against E. coli NEB5alpha – luminescence, counter-screen for MEX-5/POS-1 RNA-binding inhibitor project, dose response (AID 1959);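 note: pUC19-transformed ampicillin-resistant cells grown in LB with ampicillin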
row,SMILES,EC50
1,CN1CC=C2C(C#N)=C(N)C(C#N)(C#N)C(c3cccc(Cl)c3Cl)C2C1 (centres undefined),> 11 µM (inactive)
2,CC1(OC(=O)c2cccs2)C(=O)C=C2C=C(C3CC3)OC=C2C1=O (centres undefined),> 11 µM (inactive)
3,CN1c2ccc(C=O)c3c(C=O)ccc(c23)N(C)C1(C)C,> 11 µM (inactive)
4,CCN(CC)C(=O)c1ccc2c(c1)C1C(Cl)C(Sc3ccccc3[N+](=O)[O-])CC1C(C(=O)O)N2 (centres undefined),> 11 µM (inactive)
5,CC1(OC(=O)c2ccc(Cl)nc2)C(=O)C=C2C=C(C3CC3)OC=C2C1=O (centres undefined),> 11 µM (inactive)
6,N=c1c(S(=O)(=O)c2ccc(Cl)cc2)cc2c(=O)n3ccccc3nc2n1CCc1ccccc1,> 11 µM (inactive)
7,CCOCCCn1c(=NC(=O)c2ccc(OC)c(OC)c2)c(C#N)cc2c(=O)n3cccc(C)c3nc21,> 11 µM (inactive)
8,O=C1CSC(=S)N1/N=C/c1ccc(O)c(O)c1O,> 11 µM (inactive)
9,Cn1c(O)c(/C=C2\C=c3ccccc3=NC2=O)c(=O)n(C)c1=O,> 11 µM (inactive)
10,CCn1c(C)cc(=S)c2ccccc21,> 11 µM (inactive)
11,C1=C(c2ccccc2)Nc2nnnn2C1c1cccs1 (centres undefined),> 11 µM (inactive)
12,COc1ccc(C2C(C#N)=C(/N=C/N3CCN(C)CC3)OC3=C2C(=O)CC(C)(C)C3)cc1 (centres undefined),> 11 µM (inactive)
13,COc1cccc(C2(O)CCN(CC(=O)Nc3nc(C)cs3)CC2)c1,> 11 µM (inactive)
14,O=C(Cc1ccccc1)NNC(=O)c1cnccn1,> 11 µM (inactive)
15,CC1=NN(C(N)=S)C(=O)C1N=Nc1ccc(S(N)(=O)=O)cc1 (centres undefined),> 11 µM (inactive)
16,CN1C(=O)S/C(=C/c2cccn2-c2cccc(C(=O)O)c2)C1=O,> 11 µM (inactive)
17,Cc1ccc(-n2c(=O)c(C#N)cc3c(=O)n4ccccc4nc32)cc1C,> 11 µM (inactive)
18,O=C1NC(=O)N(c2ccccc2F)C(=O)/C1=C/c1cn(CC(=O)N2CCOCC2)c2ccccc12,> 11 µM (inactive)
19,CCCN1C(=O)c2cccc3c(N4CCCCC4)ccc(c23)C1=O,> 11 µM (inactive)
20,N#C/C(=C/c1ccc(CNS(=O)(=O)c2ccccc2)o1)C(=O)NCc1ccccc1,> 11 µM (inactive)
21,O=C(O)CSc1cc(NS(=O)(=O)c2ccc(Cl)cc2)c2ccccc2c1O,> 11 µM (inactive)
22,CCCCC1(C)OC(=O)C(=Cc2ccc(N(CC)CC)cc2)C(=O)O1 (centres undefined),> 11 µM (inactive)
23,Cc1cc(C)c[n+](-c2[nH]c(=O)sc2/C=N/NC([S-])=Nc2ccccc2)c1,> 11 µM (inactive)
24,Cn1cccc1/C=C1\C(=O)NC(=O)N(CCC2=CCCCC2)C1=O,> 11 µM (inactive)

row,SMILES,EC50
1,O=C(O)c1cccc(-n2cccc2/C=C\[N+](=O)[O-])c1,> 11 µM (inactive)
2,COC(=O)c1ccc(-n2c(C)cc(C(=O)CCl)c2C)cc1,> 11 µM (inactive)
3,Oc1[nH]c2ccccc2c1N=Nc1ccc(F)cc1,> 11 µM (inactive)
4,CCOC(=O)c1c2ccc(OCC(=O)N/N=C/c3ccc(Cl)cc3)cc2n2ccccc12,> 11 µM (inactive)
5,O=C(NCc1ccncc1)C(=O)N/N=C/c1ccccn1,> 11 µM (inactive)
6,Cn1cc(C=C2C(=O)NC(=O)NC2=O)c2ccccc21,> 11 µM (inactive)
7,CCOCCCNc1nc2nc3ccc(C)cn3c(=O)c2cc1C(=O)NCC1CCCO1 (centres undefined),> 11 µM (inactive)
8,CCOC(=O)c1c(NC(=O)CC2Nc3ccccc3NC2=O)sc(C)c1C (centres undefined),> 11 µM (inactive)
9,O=C(O)c1ccc(-n2cccc2/C=C2/SC(=O)N(CC(=O)N3CCCC3)C2=O)cc1,> 11 µM (inactive)
10,CC1C(=O)NN=C1C(=O)N/N=C/c1ccco1 (centres undefined),> 11 µM (inactive)
11,CCc1ccc(S(=O)(=O)Nc2cc(SCC(=O)O)c(O)c3ccccc23)cc1,> 11 µM (inactive)
12,C/C(=N\Nc1ccc([N+](=O)[O-])cc1[N+](=O)[O-])c1cc2c(ccc3ccccc32)oc1=O,> 11 µM (inactive)
13,COc1cc(C(CCN2CCCC2)c2c(OC)cc(OC)c3c(-c4ccccc4)cc(=O)oc23)cc(OC)c1OC (centres undefined),> 11 µM (inactive)
14,COc1ccc(OC)c(S(=O)(=O)NC2CCN(Cc3ccccc3)CC2)c1,> 11 µM (inactive)
15,CC1C2(C)OC(=N)C(C#N)(C(C)O2)C1(C#N)C#N (centres undefined),> 11 µM (inactive)
16,CCn1cc(C(=O)NCc2ccccn2)c(=O)c2cc(S(=O)(=O)N3CCCCC3)ccc21,> 11 µM (inactive)
17,C=CCn1c(O)c(/C=C/C=Nc2ccccc2)c(=O)[nH]c1=O,> 11 µM (inactive)
18,CCCCc1cn([C@@H](CCCCN)C(=O)N2CCNCC2)nn1,> 11 µM (inactive)
19,CCOc1ccc(C2OC34CCCCC3C(C#N)(C#N)C2(C#N)C(=N)O4)cc1OC (centres undefined),> 11 µM (inactive)
20,CCOC(=O)C1CCN(C(=O)CCC(=O)NNc2nc3ccccc3c3nc(C)nn23)CC1,> 11 µM (inactive)
21,CCC1=NN2C(=N)/C(=C\c3ccc(SCc4ccco4)o3)C(=O)N=C2S1,> 11 µM (inactive)
22,Cc1cc(/C=C2\C(=O)NC(=O)N(c3ccc(F)cc3)C2=O)c(C)n1-c1cccc(C(=O)O)c1,> 11 µM (inactive)
23,CCOC(=O)COn1c(=O)c(-c2cc3ccccc3o2)[n+]([O-])c2ccccc21,> 11 µM (inactive)
24,Cc1ccc(CN(C)C(=O)CC2C(=O)NCCN2CC2CCCCC2)cc1 (centres undefined),> 11 µM (inactive)

row,SMILES,EC50
1,COc1cc(C2C(C#N)=C(N)OC3=C2C(=O)CCC3)cc(OC)c1OC(=O)N1CCOCC1 (centres undefined),> 11 µM (inactive)
2,CC(=O)C1=C(c2ccccc2)N(C(C)=O)n2c(C)nnc2S1,> 11 µM (inactive)
3,N#CC(c1nc2ccccc2nc1OCCO)S(=O)(=O)c1ccccc1 (centres undefined),> 11 µM (inactive)
4,COCCCNC(=O)CCC(=O)NNc1nc2ccccc2c2nc(C)nn12,> 11 µM (inactive)
5,COc1ccccc1NCC(=O)N/N=C/c1c(O)ccc2ccccc12,> 11 µM (inactive)
6,O=C(Nc1ccccc1F)c1coc(=O)c(Br)c1,> 11 µM (inactive)
7,COCCn1c(=N)c(S(=O)(=O)c2ccc(Br)cc2)cc2c(=O)n3ccccc3nc21,> 11 µM (inactive)
8,CC1=C(C(=O)OCc2ccccc2)C(c2ccccc2[N+](=O)[O-])NC(=O)N1C (centres undefined),> 11 µM (inactive)
9,COC(=O)c1c(Cl)c2n3ccccc3c(C)c(-c3ccccc3)c-2c1C(=O)OC,> 11 µM (inactive)
10,C[C@H]1c2cccc(O)c2C(O)=C2C(=O)[C@]3(O)C(O)=C(C(N)=O)C(=O)[C@@H](N(C)C)C3[C@@H](O)C21 (some centres undefined),4.58 µM
11,Cc1cc(C)cc(N2C(=O)/C(=C\c3ccc(N4CCN(C)CC4)o3)C(=O)NC2=S)c1,> 11 µM (inactive)
12,Nc1ccc2c(c1)C/C(=C/c1ccco1)C2=O,> 11 µM (inactive)
13,Cc1ccn2c(=O)nc(SCC(=O)Nc3cc(C)on3)nc2c1,> 11 µM (inactive)
14,O=C(N/N=C/c1cc(Cl)cc([N+](=O)[O-])c1O)c1ccc2c(c1)OCO2,> 11 µM (inactive)
15,Cn1c(O)c(/C=C2/C=CC=N2)c(=O)[nH]c1=O,> 11 µM (inactive)
16,NC(=O)c1c(NC(=O)c2c(F)cccc2F)sc2c1CCN(Cc1ccccc1)C2,> 11 µM (inactive)
17,COc1ccc(OC)c(C2C(C(=O)c3ccco3)=C(O)C(=O)N2CCN2CCOCC2)c1 (centres undefined),> 11 µM (inactive)
18,CCOC(=O)c1c(NC(=O)Nc2ccc(F)cc2)sc2c1CCN(C)C2,> 11 µM (inactive)
19,Cc1ccc(/C(O)=C/c2nc3ccccc3oc2=O)cc1,> 11 µM (inactive)
20,C=CC1=C(C(=O)O)N2C(=O)[C@@H](NC(=O)/C(=N\O)c3csc(N)n3)[C@H]2SC1 (stereo in doubt),0.521 µM
21,Cc1cc(/C=C(/C#N)c2nc3ccccc3[nH]2)c(C)n1-c1cc(C(=O)O)cc(C(=O)O)c1,> 11 µM (inactive)
22,Cc1ccc(-n2[nH]c(C)c(/C=N/NC(=O)c3ccc(O)cc3O)c2=O)cc1,> 11 µM (inactive)
23,N#C/C(=N\Nc1ccc(Cl)cc1)C(=O)c1ccsc1,> 11 µM (inactive)
24,CCNC(=S)N(C)CCc1cc2c(c(OC)c1C=C1C(=O)N(C)C(=O)N(C)C1=O)OCO2,> 11 µM (inactive)

row,SMILES,EC50
1,Cc1cc(C(=O)N/N=C/c2cc(Cl)cc([N+](=O)[O-])c2O)n[nH]1,> 11 µM (inactive)
2,C/C(=N\Nc1ccc(Cl)c(C(=O)O)c1)c1ccc[nH]1,> 11 µM (inactive)
3,CCN(CC)c1ccc(C=C2C(=O)OC(C)(C(C)(C)C)OC2=O)cc1 (centres undefined),> 11 µM (inactive)
4,N=c1c(S(=O)(=O)c2ccc(Br)cc2)cc2c(=O)n3ccccc3nc2n1C1CCCCC1,> 11 µM (inactive)
5,CC1=NN(c2ccc(C(=O)O)c(N)c2)C(=O)C1,> 11 µM (inactive)
6,CCCCCCn1c(=O)[nH]c2nc3cc(N)ccc3nc2c1=O,> 11 µM (inactive)
7,CC(=O)Nc1ccc(S(=O)(=O)NNC(=O)C(=O)NNc2ccccn2)cc1,> 11 µM (inactive)
8,CCOc1cc(/C=C2/C(=O)ON=C2C)ccc1OCc1ccccc1F,> 11 µM (inactive)
9,CCOCCCNC(=O)CCC(=O)NNc1nc2ccccc2c2nc(C)nn12,> 11 µM (inactive)
10,Cc1nc(S/C(=C/c2ccc(OCc3ccc(C(=O)O)cc3)cc2)C(=O)O)n[nH]1,> 11 µM (inactive)
11,COCCN1C(=O)/C(=C/c2c(OC)cc(OC)cc2OC)C(=O)N(c2ccccc2)C1=O,> 11 µM (inactive)
12,N#CC1=C(N)OC2=C(C(=O)CCC2)C1c1cc2c(cc1Cl)OCO2 (centres undefined),> 11 µM (inactive)
13,COc1ccc(C2c3cc(OC)c(OC)cc3CCN2S(C)(=O)=O)cc1OC (centres undefined),> 11 µM (inactive)
14,CC(C)OC(=O)C(C#N)c1nc2ccccc2nc1N1CCCC1 (centres undefined),> 11 µM (inactive)
15,CN=c1scc(C)n1/N=C/c1ccc(O)c(O)c1O,> 11 µM (inactive)
16,O=C(Cc1ccccc1)Nc1ccc(N2CCOCC2)cc1N1CCOCC1,> 11 µM (inactive)
17,O=C1c2cccc3c(O)ccc(c23)C(=O)N1c1ccc(Cl)cc1,> 11 µM (inactive)
18,N#CC(C(=O)NCc1ccccc1)c1nc2ccccc2nc1N1CCCC1 (centres undefined),> 11 µM (inactive)
19,CN(C)CCN(C)Cc1c2ccccc2c(CN(C)CCN(C)C)c2ccccc12,> 11 µM (inactive)
20,CCC(=O)OC1(C)C(=O)C=C2C=C(c3ccsc3)OC=C2C1=O (centres undefined),> 11 µM (inactive)
21,Cc1ccc(NCC(=O)N/N=C/c2ccc(C(=O)O)cc2)cc1,> 11 µM (inactive)
22,CS(=O)(=O)Nc1nc2n(n1)C(c1ccccc1)C=C(c1ccc(Br)cc1)N2 (centres undefined),> 11 µM (inactive)

# Reference: PubChem BioAssay AID1959 (Broad Institute, 2009)
